# Reference: patent publication US9193689B2, “3-aryl-5-substituted-isoquinolin-1-one compounds and their therapeutic use” (INSTITUTE OF CANCER RESEARCH: ROYAL CANCER HOSPITAL (THE), priority 2012, dated 2015)
# Molecular target: TNKS1 (Homo sapiens, UniProt O95271)
# Experiment: TNKS1/PARP Biochemical Assay (TNKS1)
row,Compound,IC50 [nM]
1,CN1CCC(N(C)S(=O)(=O)c2ccc(-c3cc4c(Cl)cccc4c(=O)[nH]3)cc2)CC1 [IQ-110],< 500
2,Cc1cccc2c(=O)[nH]c(-c3ccc(CN4C[C@@H]5CN(C(=O)OC(C)(C)C)C[C@@H]5C4)cc3)cc12 [IQ-089],< 500
3,"CN1CCC(CNC(=O)c2ccc(-c3cc4c(Cl)cccc4c(=O)[nH]3)cc2)CC1 [IQ-091, 4-(5-Chloro-1-oxo-1,2-dihydro-isoquinolin-3-yl)-N-(1-methyl-piperidin-4-ylmethyl)-benzamide]",< 500
4,"Cc1cccc2c(=O)[nH]c(-c3ccc(C(=O)N(C)CC4CCN(C(=O)OC(C)(C)C)CC4)cc3)cc12 [IQ-092, 4-({Methyl-[4-(5-methyl-1-oxo-1,2-dihydro-isoquinolin-3-yl)-benzoyl]-amino}-methyl)-piperidine-1-carboxylic acid tert-butyl ester]",< 500
5,CC(C)(C)OC(=O)N1CCN(Cc2ccc(-c3cc4c(F)cc(F)cc4c(=O)[nH]3)cc2)CC1 [IQ-154],< 500
6,"Cc1cc(F)cc2c(=O)[nH]c(-c3ccc(C(=O)N(C)C4CCN(C)C4)cc3)cc12 (single isomer, unassigned) [IQ-207-1]",< 50
7,CN(C)C1CCN(S(=O)(=O)c2ccc(-c3cc4c(Cl)cccc4c(=O)[nH]3)cc2)CC1 [IQ-126],< 500
8,"Cc1cccc2c(=O)[nH]c(-c3ccc(C(=O)N(C)CC4CCN(C)CC4)cc3)cc12 [IQ-095, N-Methyl-4-(5-methyl-1-oxo-1,2-dihydro-isoquinolin-3-yl)-N-(1-methyl-piperidin-4-ylmethyl)-benzamide]",< 50
9,Cc1cccc2c(=O)[nH]c(-c3ccc(CN4C[C@@H]5C[C@H]4CN5C(=O)OC(C)(C)C)cc3)cc12 [IQ-085],< 50
10,COCCN(CCOC)C(=O)c1ccc(-c2cc3c(C)cccc3c(=O)[nH]2)cc1 [IQ-187],< 50
11,Cc1cccc2c(=O)[nH]c(-c3ccc(C(C)N4CCNCC4)cc3)cc12 (stereo not shown) [IQ-067],< 50
12,Cc1cccc2c(=O)[nH]c(-c3ccc(Cn4cnc5ccccc54)cc3)cc12 [IQ-181],< 500
13,"Cc1cccc2c(=O)[nH]c(-c3ccc(C(=O)N(C)C4CCN(C)C4)cc3)cc12 (single isomer, unassigned) [IQ-205-1]",< 50
14,Cc1cccc2c(=O)[nH]c(-c3ccc(CN4CCNCC4=O)cc3)cc12 [IQ-073],< 50
15,CN(CC1CCNCC1)S(=O)(=O)c1ccc(-c2cc3c(Cl)cccc3c(=O)[nH]2)cc1 [IQ-116],< 50
16,Cc1cc(F)cc2c(=O)[nH]c(-c3ccc(C(C)(C)N4CC(O)C4)cc3)cc12 [IQ-185],< 50
17,CN1CCN(Cc2ccc(-c3cc4c(C#CCO)cccc4c(=O)[nH]3)cc2)CC1 [IQ-231],< 50
18,"Cc1cc(F)cc2c(=O)[nH]c(-c3ccc(CN4CCNCC4)cc3)cc12 [IQ-078, 7-Fluoro-5-methyl-3-(4-piperazin-1-ylmethyl-phenyl)-2H-isoquinolin-1-one]",< 50
19,Cc1cccc2c(=O)[nH]c(-c3ccc(CN4CC(O)C4)c(F)c3)cc12 [IQ-169],< 50
20,CN(C)C1CCN(c2ccc(-c3cc4c(Cl)cccc4c(=O)[nH]3)cn2)CC1 [IQ-007],< 50

row,Compound,IC50 [nM]
1,Cc1cccc2c(=O)[nH]c(-c3ccc(C(=O)N(C4CC4)C4CCN(C)CC4)cc3)cc12 [IQ-098],< 50
2,Cc1cccc2c(=O)[nH]c(-c3ccc(CN4CC(C)NC(C)C4)cc3)cc12 (stereo not shown) [IQ-063],< 500
3,Cc1cccc2c(=O)[nH]c(-c3ccc(S(=O)(=O)N4CCN(C(=O)OC(C)(C)C)CC4)cc3)cc12 [IQ-140],< 500
4,Cc1cc(F)cc2c(=O)[nH]c(-c3ccc(C(=O)N(C)C4CCNC4)cc3)cc12 (stereo not shown) [IQ-186],< 500
5,Cc1cccc2c(=O)[nH]c(-c3ccc(CN4CCNC(=O)C4)cc3F)cc12 [IQ-166],< 500
6,O=c1[nH]c(-c2ccc(CN3CCNCC3)cc2)cc2c(C3CC3)cccc12 [IQ-049],< 500
7,Cc1cc(F)cc2c(=O)[nH]c(-c3ccc(C(=O)N(C)C4CCCN(C)C4)cc3)cc12 (stereo not shown) [IQ-212],< 50
8,COCC#Cc1cccc2c(=O)[nH]c(-c3ccc(OCCN(C)C)cc3)cc12 [IQ-234],< 500
9,Cc1cccc2c(=O)[nH]c(-c3ccc(CN4CCN(C(=O)OC(C)(C)C)CC4C)cc3)cc12 (stereo not shown) [IQ-142],< 500
10,"Cc1cccc2c(=O)[nH]c(-c3ccc(C(C)(C)N4CCNCC4)cc3)cc12 [IQ-075, 5-Methyl-3-[(4-(1-methyl-1-piperazin-1-yl]-ethyl)-phenyl]-2H-isoquinolin-1-one]",< 500
11,Cc1ccc(S(=O)(=O)N2CCN(C(C)(C)c3ccc(-c4cc5c(C)cccc5c(=O)[nH]4)cc3)CC2)cc1 [IQ-148],< 500
12,Cc1cccc2c(=O)[nH]c(-c3ccc(OCCN4CCCC4)cc3)cc12 [IQ-134],< 50
13,O=c1[nH]c(-c2ccc(CN3CCNCC3)cc2)cc2c(F)cc(F)cc12 [IQ-158],< 50
14,CN(CC1CCN(C(=O)OC(C)(C)C)CC1)S(=O)(=O)c1ccc(-c2cc3c(Cl)cccc3c(=O)[nH]2)cc1 [IQ-114],< 500
15,Cc1cccc2c(=O)[nH]c(-c3ccc(CCN4CCCC4)cc3)cc12 [IQ-041],< 500
16,Cc1cc(F)cc2c(=O)[nH]c(-c3ccc(C(=O)N(C)C4CN(C)C4)cc3)cc12 [IQ-201],< 50
17,O=C(c1ncc(-c2cc3c(F)ccc(F)c3c(=O)[nH]2)cn1)N1CCN(CC2CC2)CC1 [IQ-229],< 500
18,CC(C)(C)OC(=O)N1CCN(Cc2ccc(-c3cc4c(F)ccc(F)c4c(=O)[nH]3)cc2)CC1 [IQ-077],< 500
19,"Cc1cc(F)cc2c(=O)[nH]c(-c3ccc(C(=O)N(C)C4CCN(C)C4)cc3)cc12 (single isomer, unassigned) [IQ-207-2]",< 50
20,Cc1cccc2c(=O)[nH]c(-c3ccc(CN4CCCN(C(=O)OC(C)(C)C)CC4)cc3)cc12 [IQ-060],< 500

# Next, values leading:
row,IC50 [nM],Compound
1,< 20,"Cc1cccc2c(=O)[nH]c(-c3ccc(C(=O)N(C)C4CCN(C)C4)cc3)cc12 (single isomer, unassigned) [IQ-205-2]"
2,< 20,"Cc1cc(F)cc2c(=O)[nH]c(-c3ccc(CN4CC(O)C4)cc3)cc12 [IQ-170, 7-Fluoro-3-[4-(3-hydroxy-azetidin-1-ylmethyl)-phenyl]-5-methyl-2H-isoquinolin-1-one]"
3,< 50,"Cc1cccc2c(=O)[nH]c(-c3ccc(CN4CCNCC4C)cc3)cc12 (single isomer, unassigned) [IQ-051-2]"
4,< 50,Cc1cccc2c(=O)[nH]c(-c3ccc(N4CCN(C(=O)OC(C)(C)C)CC4)cc3)cc12 [IQ-013]
5,< 20,Cc1cccc2c(=O)[nH]c(-c3ccc(N4CCC(N(C)C)C4)nc3)cc12 (stereo not shown) [IQ-008]
6,< 20,Cc1cccc2c(=O)[nH]c(-c3ccc(CC(=O)N(C)C4CCN(C)CC4)cc3)cc12 [IQ-176]
7,< 20,CN1CCN(C(=O)c2ccc(-c3cc4c(F)cc(F)cc4c(=O)[nH]3)cc2)CC1 [IQ-227]
8,< 20,Cc1cccc2c(=O)[nH]c(-c3ccc(N4CCNCC4)nc3)cc12 [IQ-028-1]
9,< 50,CN1CCN(C(=O)c2ccc(-c3cc4c(Cl)cccc4c(=O)[nH]3)cc2)CC1 [IQ-101]
10,< 50,CN1CCN(C(=O)c2ccc(-c3cc4c(F)ccc(F)c4c(=O)[nH]3)cc2)CC1 [IQ-226]
11,< 20,Cc1cccc2c(=O)[nH]c(-c3ccc(CC(=O)N4CC(O)C4)cc3)cc12 [IQ-214]
12,< 20,Cc1cccc2c(=O)[nH]c(-c3ccc(S(=O)(=O)N(C)CC4CCOCC4)cc3)cc12 [IQ-118]
13,< 20,Cc1cccc2c(=O)[nH]c(-c3ccc(C(=O)N(C)C4CN(C)C4)cc3)cc12 [IQ-199]
14,< 20,Cc1cccc2c(=O)[nH]c(-c3ccc(C(=O)N(C)Cc4nccn4C)cc3)cc12 [IQ-198]
15,< 20,Cc1cccc2c(=O)[nH]c(-c3ccc(S(=O)(=O)N(C)CC4CCNCC4)cc3)cc12 [IQ-115]
16,< 20,"Cc1cccc2c(=O)[nH]c(-c3ccc(C(=O)N(C)CC4CCOCC4)cc3)cc12 [IQ-097, N-Methyl-4-(5-methyl-1-oxo-1,2-dihydro-isoquinolin-3-yl)-N-(tetrahydro-pyran-4-ylmethyl)-benzamide]"
17,< 20,Cc1cccc2c(=O)[nH]c(-c3ccc(Cn4ccnc4C)cc3)cc12 [IQ-168]

row,IC50 [nM],Compound
1,< 20,Cc1cccc2c(=O)[nH]c(-c3ccc(CN4CCC5(CCN(C)C5)C4)cc3)cc12 (stereo not shown) [IQ-088]
2,< 20,Cc1cccc2c(=O)[nH]c(-c3ccc(C(=O)N(C)C4CCN(C)C4)cc3)cc12 (stereo not shown) [IQ-196]
3,< 20,CNC1CN(Cc2ccc(-c3cc4c(C)cccc4c(=O)[nH]3)cc2)C1 [IQ-177]
4,< 20,Cc1cc(F)cc2c(=O)[nH]c(-c3ccc(CC(=O)N4CC(O)C4)cc3)cc12 [IQ-215]
5,< 20,"Cc1cccc2c(=O)[nH]c(-c3ccc(N4CCN(CCO)CC4)nc3)cc12 [IQ-011, 3-{6-[4-(2-Hydroxy-ethyl)-piperazin-1-yl]-pyridin-3-yl}-5-methyl-2H-isoquinolin-1-one]"
6,< 20,Cc1cccc2c(=O)[nH]c(-c3ccc(Cn4ccnc4)cc3)cc12 [IQ-180]
7,< 20,O=c1[nH]c(-c2ccc(N3CCNCC3)cc2)cc2c(Cl)cccc12 [IQ-014]
8,< 20,Cc1cccc2c(=O)[nH]c(-c3ccc(S(=O)(=O)N(C)CCO)cc3)cc12 [IQ-120]
9,< 20,"CC(=O)N1CCN(Cc2ccc(-c3cc4c(C)cccc4c(=O)[nH]3)cc2)CC1 [IQ-055, 3-[4-(4-Acetyl-piperazin-1-ylmethyl)-phenyl]-5-methyl-2H-isoquinolin-1-one]"
10,< 20,Cc1cccc2c(=O)[nH]c(-c3ccc(S(=O)(=O)N(C)CCN(C)C)cc3)cc12 [IQ-117]
11,< 20,Cc1cccc2c(=O)[nH]c(-c3ccc(C(=O)N(C)CC4(C)CCN(C)C4)cc3)cc12 (stereo not shown) [IQ-209]
12,< 20,Cc1ccc(F)c2c(=O)[nH]c(-c3ccc(C(=O)N4CCN(CCO)CC4)cc3)cc12 [IQ-193]
13,< 20,Cc1cccc2c(=O)[nH]c(-c3ccc(N4CCN(C5CC5)CC4)nc3)cc12 [IQ-004]
14,< 20,Cc1cc(F)cc2c(=O)[nH]c(-c3ccc(C(=O)N(C)CC4CCN(C)CC4)cc3)cc12 [IQ-208]
15,< 20,Cc1cccc2c(=O)[nH]c(-c3ccc(N4CCC(N(C)C)CC4)nc3)cc12 [IQ-006]
16,< 20,Cc1cccc2c(=O)[nH]c(-c3ccc(N4CCN(CCN(C)C)CC4)nc3)cc12 [IQ-018]
